For one test, the target named is T1, ER-α (Homo sapiens, UniProt P03372).
T1 sequence (P03372 1-595): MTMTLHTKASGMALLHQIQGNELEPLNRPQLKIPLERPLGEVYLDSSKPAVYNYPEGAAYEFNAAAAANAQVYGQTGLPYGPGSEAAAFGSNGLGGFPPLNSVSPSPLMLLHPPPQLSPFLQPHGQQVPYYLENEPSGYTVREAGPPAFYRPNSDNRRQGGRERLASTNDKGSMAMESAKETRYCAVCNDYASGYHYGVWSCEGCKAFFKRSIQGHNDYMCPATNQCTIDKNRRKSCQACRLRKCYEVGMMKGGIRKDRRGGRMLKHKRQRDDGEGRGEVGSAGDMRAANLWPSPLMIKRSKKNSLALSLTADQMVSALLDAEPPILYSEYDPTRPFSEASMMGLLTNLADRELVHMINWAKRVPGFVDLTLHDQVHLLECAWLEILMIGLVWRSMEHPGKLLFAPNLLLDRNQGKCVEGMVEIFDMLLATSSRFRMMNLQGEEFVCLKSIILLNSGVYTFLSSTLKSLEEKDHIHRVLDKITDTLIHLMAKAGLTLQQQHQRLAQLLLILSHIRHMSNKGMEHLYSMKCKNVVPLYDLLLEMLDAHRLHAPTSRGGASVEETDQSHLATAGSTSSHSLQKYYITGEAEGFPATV
As to the kind of experiment: Breast Cancer Cell ER-α In Cell Western Assay (SP1). The class given is cell-based. As to conditions: MCF-7 cells, SP1 antibody, 4 or 24 hr post compound addition; for Emax: MCF7, read-out: ER-α In Cell Western Assay (SP1) Max Response; for DC50: read-out: ER-α In Cell Western Assay (SP1) IC50. In outline:
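ER-α protein levels measured by in-cell western with SP1 antibody, ratioed to DRAQ5 DNA signal and given as percent of untreated controls. Compounds added at 0.3–0.000003 μM final (eleven semilog points) to adherent MCF-7 cells in stripped serum; exposure 4 or 24 h before fixation.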

The test system of the next test is MCF-7 cells. As to the kind of experiment: Breast Cancer Cell Viability Assay (MCF-7, CellTiter-Glo). The class given is cell-based. As to conditions: 5 days' compound exposure; for IC50: Homo sapiens, MCF7, 120 h. In outline: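 Eleven-point semilog compound series, final 0.3-0.000003 μM, added to overnight-adhered MCF-7 cells (320/well; RPMI, 10% FBS, 20 mM HEPES) for 5 days. Viability read by CellTiter-Glo luminescence, background from medium without cells subtracted, expressed relative to untreated cells.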
For orientation: In ATP-based viability assays light output follows the ATP content of the culture.

The values that follow come from patent publication US8455534B2, “Estrogen receptor modulators and uses thereof” (Aragon Pharmaceuticals, Inc., priority 2010, dated 2013).

As a reminder, the IC50 is the concentration needed to halve the response being measured. Low readings indicate greater potency, high ones weaker potency.

The structures appear in SMILES notation.

For `CC/C(=C(/c1ccc(/C=C/C(=O)O)cc1)c1ccc2[nH]nc(C)c2c1)c1ccccc1` [Compound 39, (E)-3-(4-((E)-1-(3-Methyl-1H-indazol-5-yl)-2-phenylbut-1-en-1-yl)phenyl)acrylic acid], on ER-α, the Emax was ≥ 40% and the DC50 was > 100 nM. Besides, in the test with MCF-7 cells, the “MCF7 Viability Assay Max Response” value is recorded as “++ (++ = a single % value ≧ 40%)” and the 50% inhibitory concentration (IC50) is > 100 nM.
Consider `CC/C(=C(/c1ccc(/C=C/C(=O)O)cc1)c1ccc2[nH]nc(Cl)c2c1)c1ccccc1` [Compound 40, (E)-3-(4-((E)-1-(3-Chloro-1H-indazol-5-yl)-2-phenylbut-1-en-1-yl)phenyl)acrylic acid], for which, on ER-α, the Emax was ≥ 40% and the DC50 was > 100 nM. Moreover, in the test with MCF-7 cells, the “MCF7 Viability Assay Max Response” value is reported as “++ (++ = a single % value ≧ 40%)” and the IC50 was > 100 nM.
Regarding `CC/C(=C(/c1ccc(/C=C/C(=O)O)cc1)c1ccc2[nH]ncc2c1)c1ccc(Cl)cc1C` [Compound 41, (E)-3-(4-((E)-2-(4-Chloro-2-methylphenyl)-1-(1H-indazol-5-yl)but-1-en-1-yl)phenyl)acrylic acid], at ER-α, the Emax was ≥ 40% and the DC50 is ≤ 100 nM. In the test with MCF-7 cells, the “MCF7 Viability Assay Max Response” value is “++ (++ = a single % value ≧ 40%)” and the 50% inhibitory concentration (IC50) is ≤ 100 nM.
With `C/C(=C(/c1ccc(/C=C/C(=O)O)cc1)c1ccc2[nH]ncc2c1)c1ccccc1` [Compound 42, (E)-3-(4-((E)-1-(1H-Indazol-5-yl)-2-phenylprop-1-en-1-yl)phenyl)acrylic acid], at ER-α, the Emax is ≥ 40% and the DC50 is ≤ 100 nM. Further, in the test with MCF-7 cells, the “MCF7 Viability Assay Max Response” value is listed as “++ (++ = a single % value ≧ 40%)” and the half-maximal inhibitory concentration (IC50) was ≤ 100 nM.
For `CCC/C(=C(/c1ccc(/C=C/C(=O)O)cc1)c1ccc2[nH]ncc2c1)c1ccccc1` [Compound 43, (E)-3-(4-((E)-1-(1H-Indazol-5-yl)-2-phenylpent-1-en-1-yl)phenyl)acrylic acid], on ER-α, the Emax was ≥ 40% and the DC50 was ≤ 100 nM. Moreover, in the test on MCF-7 cells, the “MCF7 Viability Assay Max Response” value is on record as “++ (++ = a single % value ≧ 40%)” and the IC50 was ≤ 100 nM.
Regarding `CC/C(=C(/c1ccc(/C=C/C(=O)O)cc1)c1ccc2[nH]ncc2c1)c1cccc(C#N)c1` [Compound 44, (E)-3-(4-((E)-2-(3-Cyanophenyl)-1-(1H-indazol-5-yl)but-1-en-1-yl)phenyl)acrylic acid], the Emax on ER-α was ≥ 40%. In the test with MCF-7 cells, the “MCF7 Viability Assay Max Response” value was “++ (++ = a single % value ≧ 40%)” and the IC50 is ≤ 100 nM.
Taken in the same sequence, the figures for `CC/C(=C(/c1ccc(/C=C/C(=O)O)cc1)c1ccc2[nH]ncc2c1)c1ccc(C#N)cc1` [Compound 45, (E)-3-(4-((E)-2-(4-Cyanophenyl)-1-(1H-indazol-5-yl)but-1-en-1-yl)phenyl)acrylic acid] were ≥ 40%, “++ (++ = a single % value ≧ 40%)” and ≤ 100 nM.
Consider `O=C(O)/C=C/c1ccc(/C(=C(/CCO)c2ccccc2)c2ccc3[nH]ncc3c2)cc1` [Compound 46, (E)-3-(4-((E)-4-Hydroxy-1-(1H-indazol-5-yl)-2-phenylbut-1-en-1-yl)phenyl)acrylic acid], for which, at ER-α, the Emax is ≥ 40% and the DC50 was > 100 nM. In the test with MCF-7 cells, the “MCF7 Viability Assay Max Response” value is given as “+ (+ = a single % value < 40%)” and the IC50 was > 100 nM.
As to `COCC/C(=C(/c1ccc(/C=C/C(=O)O)cc1)c1ccc2[nH]ncc2c1)c1ccccc1` [Compound 47, (E)-3-(4-((E)-1-(1H-Indazol-5-yl)-4-methoxy-2-phenylbut-1-en-1-yl)phenyl)acrylic acid], at ER-α, the Emax was ≥ 40% and the DC50 is ≤ 100 nM. For the same compound, in the test on MCF-7 cells, the “MCF7 Viability Assay Max Response” value was “++ (++ = a single % value ≧ 40%)” and the IC50 is ≤ 100 nM.
`COC/C(=C(/c1ccc(/C=C/C(=O)O)cc1)c1ccc2[nH]ncc2c1)c1ccccc1` [Compound 48, (E)-3-(4-((Z)-1-(1H-Indazol-5-yl)-3-methoxy-2-phenylprop-1-en-1-yl)phenyl)acrylic acid]: on ER-α, the Emax is ≥ 40% and the DC50 is ≤ 100 nM. For the same compound, in the test with MCF-7 cells, the “MCF7 Viability Assay Max Response” value is “++ (++ = a single % value ≧ 40%)” and the IC50 is ≤ 100 nM.
Turning to `CC/C(=C(/c1ccc(/C=C/C(=O)O)cc1)c1ccc2[nH]ncc2c1F)c1ccccc1` [Compound 49, (E)-3-(4-((E)-1-(4-Fluoro-1H-indazol-5-yl)-2-phenylbut-1-en-1-yl)phenyl)acrylic acid], at ER-α, the Emax is ≥ 40% and the DC50 was ≤ 100 nM. In the test on MCF-7 cells, the “MCF7 Viability Assay Max Response” value is “++ (++ = a single % value ≧ 40%)” and the 50% inhibitory concentration (IC50) was ≤ 100 nM.
For `CC/C(=C(/c1ccc(/C=C/C(=O)O)cc1)c1cc2cn[nH]c2cc1Cl)c1ccccc1` [Compound 50, (E)-3-(4-((E)-1-(6-Chloro-1H-indazol-5-yl)-2-phenylbut-1-en-1-yl)phenyl)acrylic acid], at ER-α, the Emax is ≥ 40% and the DC50 was ≤ 100 nM. In the test on MCF-7 cells, the “MCF7 Viability Assay Max Response” value is “++ (++ = a single % value ≧ 40%)” and the IC50 is ≤ 100 nM.
Take `CC(C)C/C(=C(/c1ccc(/C=C/C(=O)O)cc1)c1ccc2[nH]ncc2c1)c1ccccc1` [Compound 51, (E)-3-(4-((E)-1-(1H-Indazol-5-yl)-4-methyl-2-phenylpent-1-en-1-yl)phenyl)acrylic acid]: at ER-α, the Emax is ≥ 40% and the DC50 is ≤ 100 nM. In addition, in the test with MCF-7 cells, the “MCF7 Viability Assay Max Response” value is reported as “++ (++ = a single % value ≧ 40%)” and the IC50 is ≤ 100 nM.
Consider `CC/C(=C(/c1ccc(/C=C/C(=O)O)cc1)c1ccc2[nH]ncc2c1Cl)c1ccccc1` [Compound 52, (E)-3-(4-((E)-1-(4-Chloro-1H-indazol-5-yl)-2-phenylbut-1-en-1-yl)phenyl)acrylic acid], for which, at ER-α, the Emax was ≥ 40% and the DC50 was ≤ 100 nM. Further, in the test with MCF-7 cells, the “MCF7 Viability Assay Max Response” value is “++ (++ = a single % value ≧ 40%)” and the concentration for half-maximal inhibition (IC50) is ≤ 100 nM.
`O=C(O)/C=C/c1ccc(/C(=C(\c2ccccc2)C2CCCC2)c2ccc3[nH]ncc3c2)cc1` [Compound 53, (E)-3-(4-((E)-2-Cyclopentyl-1-(1H-indazol-5-yl)-2-phenylvinyl)phenyl)acrylic acid]: on ER-α, the Emax was ≥ 40% and the DC50 was ≤ 100 nM. In the test on MCF-7 cells, the “MCF7 Viability Assay Max Response” value is “++ (++ = a single % value ≧ 40%)” and the IC50 is ≤ 100 nM.
Regarding `O=C(O)/C=C/c1ccc(/C(=C(\c2ccccc2)C2CCCCC2)c2ccc3[nH]ncc3c2)cc1` [Compound 54, (E)-3-(4-((E)-2-Cyclohexyl-1-(1H-indazol-5-yl)-2-phenylvinyl)phenyl)acrylic acid], on ER-α, the Emax is ≥ 40% and the DC50 is ≤ 100 nM. In addition, in the test with MCF-7 cells, the “MCF7 Viability Assay Max Response” value is on record as “++ (++ = a single % value ≧ 40%)” and the IC50 is ≤ 100 nM.
As to `CC(C)/C(=C(/c1ccc(/C=C/C(=O)O)cc1)c1ccc2[nH]ncc2c1)c1ccccc1` [Compound 55, (E)-3-(4-((E)-1-(1H-Indazol-5-yl)-3-methyl-2-phenylbut-1-en-1-yl)phenyl)acrylic acid], at ER-α, the Emax is ≥ 40% and the DC50 was ≤ 100 nM. Moreover, in the test on MCF-7 cells, the “MCF7 Viability Assay Max Response” value is “++ (++ = a single % value ≧ 40%)” and the half-inhibitory concentration (IC50) was ≤ 100 nM.
On to `O=C(O)/C=C/c1ccc(/C(=C(/CC2CC2)c2ccccc2)c2ccc3[nH]ncc3c2)cc1` [Compound 56, (E)-3-(4-((E)-3-Cyclopropyl-1-(1H-indazol-5-yl)-2-phenylprop-1-en-1-yl)phenyl)acrylic acid], for which, on ER-α, the Emax was ≥ 40% and the DC50 is ≤ 100 nM. In the test on MCF-7 cells, the “MCF7 Viability Assay Max Response” value is on record as “++ (++ = a single % value ≧ 40%)” and the concentration for half-maximal inhibition (IC50) was ≤ 100 nM.
`O=C(O)/C=C/c1ccc(/C(=C(\c2ccccc2Cl)C2CC2)c2ccc3[nH]ncc3c2)cc1` [Compound 57, (E)-3-(4-((E)-2-(2-Chlorophenyl)-2-cyclopropyl-1-(1H-indazol-5-yl)vinyl)phenyl)acrylic acid]: at ER-α, the Emax is ≥ 40% and the DC50 was ≤ 100 nM. In the test with MCF-7 cells, the “MCF7 Viability Assay Max Response” value is given as “++ (++ = a single % value ≧ 40%)” and the 50% inhibitory concentration (IC50) was ≤ 100 nM.
`CC/C(=C(/c1ccc(/C=C/C(=O)O)cc1)c1cc2cn[nH]c2cc1F)c1ccccc1` [Compound 58, (E)-3-(4-((E)-1-(6-Fluoro-1H-indazol-5-yl)-2-phenylbut-1-en-1-yl)phenyl)acrylic acid]: at ER-α, the Emax was ≥ 40% and the DC50 is ≤ 100 nM. Further, in the test with MCF-7 cells, the “MCF7 Viability Assay Max Response” value is reported as “++ (++ = a single % value ≧ 40%)” and the IC50 was ≤ 100 nM.
